The results in this text go back to patent publication US6479466B1, “Compositions for treating viral infections, and methods therefor” (University of Maryland, priority 1999, dated 2002).

Where two headings read alike, the source gives them in different places.

In one assay the test system is HTLV-IIIB. Put plainly: p24 antigen production in PHA-activated PBMCs infected with HTLV-IIIB. As to conditions: for inhibition at 10 µM / IC90: Human immunodeficiency virus 1, IIIB, PBMC; for IC90: read-out: IC90 (concentration of nucleoside analog that reduced the p24 antigen value of the untreated control by 90%). The assay is classed as cell-based, HIV-1. An excerpt: The antiviral activities of RV alone and in combination with nucleoside analogs were investigated in PHA-stimulated PBMCs from seronegative donors. RV, ddC, ddI, and AZT were purchased from Sigma (St. Louis, Mo.). The HIV-1 T-cell line adapted isolate HTLV-IIIB was obtained from Dr. Gallo, at the National Institutes of Health AIDS Research and Reference Reagent Program (Catalog #398, Rockville, Md.). Primary strains of HIV-1 were isolated by coculturing 10^7 patient PBMC with an equal number of PHA-stimulated PBMC from a normal donor. Titration of stocks and MT-2 phenotype determination were carried out as described (ACTG Virology Manual, NIH Pub No. 94 3828, 1994). The SI phenotype was determined by assessing viral growth and syncytia formation in the MT-2 cell line obtained from Dr. Richman at the National Institutes of Health AIDS Research and Reference Reagent Program (Catalog #237, Rockville, Md.).
Primary PBMCs were separated from whole blood of HIV seronegative donors by density centrifugation over Ficoll-Hypaque (Sigma). The culture medium consisted of RPMI supplemented with 10% fetal bovine serum (FBS), 2 mM glutamine and penicillin/streptomycin (Gibco, Grand Island, N.Y.).
For infection studies involving PBMCs, cells were stimulated with 2.5 or 10 μg/ml phytohemagglutinin (PHA; Boehringer Mannheim, Indianapolis, Ind.) for 3 days. Stimulated PBMCs were infected by incubation with virus at a multiplicity of infection of 1000 TCID50/10^6 PBMC for 2 hours. PBMCs were then washed three times with PBS and cultured in 5% CO2 at 37° C., in RPMI/10% FBS supplemented with 10 units/ml IL-2 (Boehringer Mannheim) and drugs as appropriate. PBMCs were seeded in 96-well flat-bottom plates at a density of 2×10^5 PBMCs/200 μl. Following 3 days of culture half of the medium was replaced with fresh medium containing IL-2 and drugs. After 7 days of culture, HIV-1 p24 antigen production in the culture supernatant was assayed by ELISA (Coulter, Hialeah, Fla.). The concentration of nucleoside analog, alone and in combination with resveratrol, that reduced the p24 antigen value of the untreated control by 90% (IC90) was calculated by using nonparametric regression analysis. The analysis used the median-effect equation, Fa=1/[1+(Dm/D)]^m, where D is the dose, Fa is the fraction affected, and Dm is the dose required to produce the median effect.
Cells were infected with the T-cell tropic isolate HTLV-IIIB for 2 hours, and then cultured in varying concentrations of RV with or without nucleoside analogs. Virus replication was measured by p24 antigen production by ELISA using a standard commercial kit in the culture supernatants on days 7 and 10 after infection.
Activated PBMCs infected with HTLV-IIIB were cultured in the presence of ddI plus HU (100 μM) or RV (5 and 10 μM). […] Virus production in the presence of the different drug concentrations was evaluated on day 7 after infection.

For another assay, the system named is HIV-1SF162. Put plainly: p24 antigen production in monocyte-derived macrophages infected with HIV-1SF162. Format: cell-based. As to conditions: for virus production after drug removal on day 20: 10 μM ddI with or without 10 μM RV, 14 further days. The method, then:
MDMs were prepared as described infra, and infected with the SF162 strain of HIV-1 obtained from Dr. Levy at the National Institutes of Health AIDS Research and Reference Reagent Program (Rockville, Md.). Briefly, 25×10^6 freshly isolated PBMCs were cultured for 5 days in T-25 flasks (Coming Costar, Cambridge, Mass.) containing culture medium supplemented with 20% FBS and 10% AB human serum (Gemini Bioproducts, Inc., Calabasas, Calif.). On day 5, non-adherent cells were removed by washing five times with warm RPMI/10%FBS medium. Adherent cells in representative flasks were counted by trypan blue exclusion. By morphology and cytochemical staining for nonspecific esterase (Sigma), more than 97% of cells were macrophages. HIV infection was carried out by adding virus to the flask at a multiplicity of infection of 2000 TCID50/10^6 adherent cells and incubating for 3 hours. Flasks were then washed 3 times with warm RPMI/10%FBS medium and cultured in RPMI containing 20% FBS plus drugs. Every 3 days culture supernatants were collected and fresh medium containing drugs was added to each flask. Virus replication was assayed weekly for p^24 antigen production as described in Example 1 in the supernatant. Cultures were maintained for 3 weeks.
For the present example, cultures were maintained in the presence of 10 μM RV and varying concentrations of ddI. The amount of p24 antigen produced in the supernatant was measured on days 7 and 16 after infection. […] However, a 10-fold or greater potentiation of ddI-antiviral activity was observed when the nucleoside analogue was combined with 10 μM RV.
MDMs derived from 2 seronegative donors were infected with the SF 162 strain of HIV-1 and cultured in the presence of 10 μM ddI, a plasma level attainable in treated individuals. The anti-HIV effect of this concentration of ddI was investigated in the presence or absence of 10 μM RV. DdI alone (10 μM) inhibited viral replication by more than 90% in both donors on day 7 after infection. […] The strong antiviral activity achieved by RV plus ddI on day 16 was further analyzed by removing the drugs from the culture. The drugs were then removed on day 20 and the macrophages maintained in culture for an additional 14 days. In donor #1 MDMs, a virus rebound followed drug removal in the cultures that had been exposed to ddI alone.

On to `Oc1ccc(/C=C/c2cc(O)cc(O)c2)cc1` [RV, trans-3, 4′, 5-trihydroxystilbene], for which the inhibition (usually how much of the control response was suppressed) at 10 µM in the assay on HTLV-IIIB (168 h, 10 μM RV combined with 0.5 μM ddI, day 7, read-out: inhibition of virus replication) is more than 99%; with HTLV-IIIB (168 h, 10 μM RV in combination with 0.25 μM ddI, day 7, read-out: inhibition of HIV-1 replication) it was 94%; with HTLV-IIIB (RV 10 μM alone, read-out: inhibition of viral replication), approximately 30%. Besides, in the assay with HTLV-IIIB (RV 5 μM alone), the “reduction of virus production” value was “approximately 10%”. In addition, the anti-HIV effect result with HIV-1SF162 (RV 10 μM in the absence of ddI, 2 donors) was “only a modest anti-HIV effect”.
Take `OC[C@@H]1CC[C@H](n2cnc3c(O)ncnc32)O1` [ddI, 2′,3′-dideoxyinosine]: the IC90 in the assay with HTLV-IIIB (168 h, in combination with 5 μM RV, day 7) turned out to be 1.3 µM; with HTLV-IIIB (168 h, nucleoside analog alone, day 7), 7.5 µM. The “increase in antiviral activity” value in the assay on HTLV-IIIB (addition of 10 μM RV to 2 μM ddI) is 200 fold. In addition, the “reduction of IC90 value” with HTLV-IIIB (in combination with 5 μM RV) is 5.7 fold; in the assay with HTLV-IIIB (in the presence of 10 μM RV), 17.8 fold. In addition, in the assay with HIV-1SF162 (Human immunodeficiency virus 1, Macrophage, 168 h, ddI alone 10 μM, both donors, day 7, read-out: inhibition of viral replication), the inhibition at 10 µM was more than 90%. In addition, the “virus production after drug removal on day 20” value is “virus rebound” in the assay on HIV-1SF162 (donor #1 MDMs) and “continued releasing virus” in the assay on HIV-1SF162 (donor #2 MDMs).
